Where two headings read alike, the source gives them in different places.
Experiments:
human EHMT2 913-1193 = biological target: T1, human EHMT2 913-1193 (Homo sapiens, UniProt Q96KQ7); assay: biochemical
T1 construct: recombinant purified human EHMT2 913-1193, Viva; purchased Viva
T1 sequence (Q96KQ7 913-1193): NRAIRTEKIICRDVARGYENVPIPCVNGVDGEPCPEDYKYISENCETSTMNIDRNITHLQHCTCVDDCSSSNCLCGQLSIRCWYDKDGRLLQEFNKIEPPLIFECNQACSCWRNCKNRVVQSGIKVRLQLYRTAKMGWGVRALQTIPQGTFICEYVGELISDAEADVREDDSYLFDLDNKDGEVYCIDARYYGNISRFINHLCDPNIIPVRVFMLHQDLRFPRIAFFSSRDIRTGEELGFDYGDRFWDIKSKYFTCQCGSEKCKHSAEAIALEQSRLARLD
Source text: Biotinylated histone peptides were synthesized by Biopeptide and HPLC-purified to >95% purity. Streptavidin Flashplates and seals were purchased from PerkinElmer and 384 Well V-bottom Polypropylene Plates were from Greiner. ^3H-labeled S-adenosylmethionine (^3H-SAM) was obtained from American Radiolabeled Chemicals with a specific activity of 80 Ci/mmol. Unlabeled SAM and S-adenosylhomocysteine (SAH) were obtained from American Radiolabeled Chemicals and Sigma-Aldrich respectively. […] 384-well Flashplates and 96-well filter binding plates were read on a TopCount microplate reader (PerkinElmer). Compound serial dilutions were performed on a Freedom EVO (Tecan) and spotted into assay plates using a Thermo Scientific Matrix PlateMate (Thermo Scientific). Reagent cocktails were added by Multidrop Combi (Thermo Scientific).
General Procedure for EHMT2 Enzyme Assay on Histone Peptide Substrate. 10-point curves of test compounds were made on a Freedom EVO (Tecan) using serial 3-fold dilutions in DMSO, beginning at 2.5 mM (final top concentration of compound was 50 μM and the DMSO was 2%). A 1 μL aliquot of the inhibitor dilution series was spotted in a polypropylene 384-well V-bottom plate (Greiner) using a Thermo Scientific Matrix PlateMate (Thermo Scientific). […] Reactions were incubated for 60 minutes at room temperature and quenched with 10 μL per well of 400 μM unlabeled SAM, then transferred to a 384-well streptavidin Flashplate (PerkinElmer) and washed in a Biotek ELx-405 well washer with 0.1% Tween after 60 minutes. 384-well Flashplates were read on a TopCount microplate reader (PerkinElmer).

EHMT1 = biological target: T2, EHMT1 (Homo sapiens, UniProt Q9H9B1); assay: EHMT1 PEP; type: biochemical
T2 sequence (Q9H9B1 1-1298): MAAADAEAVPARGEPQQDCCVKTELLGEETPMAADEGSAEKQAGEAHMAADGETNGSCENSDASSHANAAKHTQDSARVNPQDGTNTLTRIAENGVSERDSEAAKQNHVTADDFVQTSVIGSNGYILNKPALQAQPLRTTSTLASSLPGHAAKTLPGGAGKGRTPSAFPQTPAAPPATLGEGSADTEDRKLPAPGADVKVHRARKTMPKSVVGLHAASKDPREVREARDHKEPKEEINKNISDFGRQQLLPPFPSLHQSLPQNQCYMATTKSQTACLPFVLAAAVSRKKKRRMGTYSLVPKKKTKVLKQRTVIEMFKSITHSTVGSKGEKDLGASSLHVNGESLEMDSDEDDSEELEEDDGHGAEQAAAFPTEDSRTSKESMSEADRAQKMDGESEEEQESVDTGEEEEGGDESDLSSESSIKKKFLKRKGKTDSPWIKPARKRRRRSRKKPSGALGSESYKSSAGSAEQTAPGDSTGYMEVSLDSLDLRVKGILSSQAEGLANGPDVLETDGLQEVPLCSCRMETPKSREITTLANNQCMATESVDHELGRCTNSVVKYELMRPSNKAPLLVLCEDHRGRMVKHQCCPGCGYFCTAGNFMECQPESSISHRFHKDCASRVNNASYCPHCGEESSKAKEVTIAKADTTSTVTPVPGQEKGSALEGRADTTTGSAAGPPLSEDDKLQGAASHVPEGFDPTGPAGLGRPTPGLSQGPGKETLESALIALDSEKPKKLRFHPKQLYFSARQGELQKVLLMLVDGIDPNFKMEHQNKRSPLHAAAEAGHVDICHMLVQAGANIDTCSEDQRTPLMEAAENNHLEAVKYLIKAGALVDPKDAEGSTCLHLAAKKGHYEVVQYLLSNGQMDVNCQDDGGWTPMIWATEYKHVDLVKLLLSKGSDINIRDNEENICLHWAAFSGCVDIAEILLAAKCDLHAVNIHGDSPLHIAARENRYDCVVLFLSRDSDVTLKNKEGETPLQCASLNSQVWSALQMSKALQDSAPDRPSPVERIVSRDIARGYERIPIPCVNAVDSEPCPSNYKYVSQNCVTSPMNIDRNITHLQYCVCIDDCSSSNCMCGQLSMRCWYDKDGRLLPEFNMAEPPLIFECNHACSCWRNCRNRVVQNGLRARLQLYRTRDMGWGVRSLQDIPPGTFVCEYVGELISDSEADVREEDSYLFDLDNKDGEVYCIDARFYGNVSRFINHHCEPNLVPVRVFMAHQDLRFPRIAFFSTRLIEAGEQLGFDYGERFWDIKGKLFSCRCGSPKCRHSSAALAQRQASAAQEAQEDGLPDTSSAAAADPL

[1] = recombinant human EHMT2 913-1193, histone H3 1-15 peptide, 3H-SAM, balanced conditions, read-out: EHMT2 PEP (IC50 μM)

| IC50 (human EHMT2 913-1193; [1]) [µM] | IC50 (EHMT1) [µM] | IC50 (human EHMT2 913-1193) [µM] | SMILES |
| --- | --- | --- | --- |
| 0.1 to 1 | 0.1 to 1 |  | CNC1=Nc2cc(C#C[C@@H](C)N3CCCCC3)c(OC)cc2C12CCC2 [Compound 94] |
| < 0.1 | < 0.1 |  | CNC1=Nc2cc(C#C[C@H](C)N3CCCCC3)c(OC)cc2C12CCC2 [Compound 93] |
| > 10 | 1 to 10 |  | NC1=Nc2cc(OCCCN3CCCC3)c(-c3ccccc3)cc2C12CCC2 [Compound 135] |
| < 0.1 | < 0.1 |  | CNC1=Nc2cc(C#CCN3CC4CC4C3)c(OC)cc2C12CCC2 (centres unmarked) [Compound 87] |
| > 10 | 1 to 10 |  | NC1=Nc2cc(OCCCN3CCCC3)c(-c3ccncc3)cc2C12CCC2 [Compound 136] |
| > 10 | > 10 |  | NC1=Nc2cc(OCCCN3CCCC3)c(-c3cccnc3)cc2C12CCC2 [Compound 137] |
| < 0.1 | < 0.1 |  | CNC1=Nc2cc(C#CC(C)N3CC4CC4C3)c(OC)cc2C12CCC2 (centres unmarked) [Compound 89] |
| 0.1 to 1 | < 0.1 |  | CNC1=Nc2cc(C#CCN3CCC(O)C3)c(OC)cc2C12CCC2 (centres unmarked) [Compound 95] |
| 1 to 10 | 1 to 10 |  | COc1cc2c(cc1OCCCN)N=C(N)C21CCC1 [Compound 69] |
| 1 to 10 | 1 to 10 |  | CC(C)Oc1cc2c(cc1OCCCN1CCCC1)N=C(N)C21CCC1 [Compound 68] |
| 1 to 10 | > 10 |  | COc1cc2c(cc1OCCCN1CCCC1)ncn2C(C)C [Compound 67] |

The next lines start with the compound.

| SMILES | IC50 (human EHMT2 913-1193; [1]) [µM] | IC50 (EHMT1) [µM] | IC50 (human EHMT2 913-1193) [µM] |
| --- | --- | --- | --- |
| NC1=Nc2cc(OCCCN3CCCC3)c(OCc3ccccc3)cc2C12CCC2 [Compound 58] | 1 to 10 | 1 to 10 |  |
| NC1=Nc2cc(OCCCN3CCCC3)c(OCC3CCCCC3)cc2C12CCC2 [Compound 61] | > 10 | > 10 |  |
| COc1cc2c(cc1OCCCN(C)C)N=C(N)C21CCC1 [Compound 53] | < 0.1 | < 0.1 |  |
| COc1cc2c(cc1OCC(O)CN1CCCC1)N=C(N)C21CCC1 (centres unmarked) [Compound 62] | < 0.1 | < 0.1 |  |
| CCOc1cc2c(cc1OCCCN1CCCC1)N=C(N)C21CCC1 [Compound 59] | < 0.1 | < 0.1 |  |
| COc1cc2c(cc1OCCCN1CCCC1)N=C(N)C21CCCC1 [Compound 56] |  | < 0.1 | < 0.1 |
| CNCCCOc1cc2c(cc1OC)C1(CCC1)C(N)=N2 [Compound 57] | 1 to 10 | 1 to 10 |  |
| COc1cc2c(cc1OCCCN(C)C)N=C(N)C2(C)C [Compound 46] | 0.1 to 1 | 0.1 to 1 |  |
| COc1cc2c(cc1OCCCN)N=C(N)C2(C)C [Compound 47] | 1 to 10 | 1 to 10 |  |
| COc1cc2c(cc1OCCCN1CC[C@H](O)C1)N=C(N)C21CCC1 [Compound 50] | < 0.1 | < 0.1 |  |
| COc1cc2c(cc1OCCCN1CCCC1)C1(CCC1)C(N)=N2 [Compound 66] | 1 to 10 | 1 to 10 |  |
| COc1cc2c(cc1OCCCN1CCC1)N=C(N)C21CCC1 [Compound 43] | < 0.1 | < 0.1 |  |
| COc1cc2c(cc1OCCCN1CCOCC1)N=C(N)C21CCC1 [Compound 54] | 0.1 to 1 | 0.1 to 1 |  |
| COc1cc2c(cc1OCCCN1CCCCC1)N=C(N)C21CCC1 [Compound 52] | < 0.1 | 0.1 to 1 |  |
| COc1cc2c(cc1OCCCN1CCCC1)N=C(N)C21CCCCC1 [Compound 55] | < 0.1 | < 0.1 |  |
| COc1cc2nc[nH]c2cc1OCCCN1CCCC1 [Compound 51] | 1 to 10 | 1 to 10 |  |
| NC1=Nc2cc(OCCCN3CCCC3)c(OCC3CCOCC3)cc2C12CCC2 [Compound 60] | 1 to 10 | 1 to 10 |  |
| COc1cc2c(cc1OCC(C)CN1CCCC1)N=C(N)C21CCC1 (centres unmarked) [Compound 65] | 0.1 to 1 | 0.1 to 1 |  |
| COc1cc2c(cc1OCCCN1CC[C@@H](O)C1)N=C(N)C21CCC1 [Compound 49] | < 0.1 | < 0.1 |  |
| CNCCCOc1cc2c(cc1OC)C(C)(C)C(N)=N2 [Compound 48] | 0.1 to 1 | 0.1 to 1 |  |

Source: patent publication US20220274961A1, “SUBSTITUTED FUSED BI- OR TRI- HETEROCYCLIC COMPOUNDS AS EHMT2 INHIBITORS” (priority 2016, published 2022)
